For 28 compounds, Ki results are on record in patent US7803815B2, “Indol-3-yl-corbonyl-piperidin-benzoimidazol derivatives” (Hoffmann-La Roche Inc., priority 2005, dated 2010).

In the assay the target is T1, human V1a receptor (Homo sapiens, UniProt P37288).
T1 construct: expressed in transfected cells; host or cells: HEK293 cells, transiently transfected; membrane preparation
T1 sequence (P37288 whole entry): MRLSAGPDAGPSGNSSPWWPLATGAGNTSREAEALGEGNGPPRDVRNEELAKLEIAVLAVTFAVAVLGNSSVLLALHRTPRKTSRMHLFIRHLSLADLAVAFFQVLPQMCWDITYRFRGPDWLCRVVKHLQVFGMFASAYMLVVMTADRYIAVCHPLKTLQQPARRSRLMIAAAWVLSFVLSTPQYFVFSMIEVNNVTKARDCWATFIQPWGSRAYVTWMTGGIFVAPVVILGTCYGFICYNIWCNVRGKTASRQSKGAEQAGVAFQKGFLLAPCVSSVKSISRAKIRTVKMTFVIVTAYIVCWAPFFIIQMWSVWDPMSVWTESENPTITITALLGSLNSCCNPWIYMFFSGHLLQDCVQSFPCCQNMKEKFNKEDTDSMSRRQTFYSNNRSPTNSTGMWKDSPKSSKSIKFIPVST
Kind of assay: human V1a receptor binding, 3H-Vasopressin SPA on membranes of transfected HEK293 cells. Conditions: displacement of 4 nM 3H-Vasopressin; HEK293 cell membranes; 1 h at room temperature; Ki from IC50 by the Cheng-Prussoff equation. As for the experimental part:
The human V1a receptor was cloned by RT-PCR from total human liver RNA. The coding sequence was subcloned in an expression vector after sequencing to confirm the identity of the amplified sequence. […] Cell membranes were prepared from HEK293 cells transiently transfected with the expression vector and grown in 20 liter fermenters with the following protocol.
50 g of cells are resuspended in 30 ml freshly prepared ice cold Lysis buffer (50 mM HEPES, 1 mM EDTA, 10 mM MgCl2 adjusted to pH=7.4+ complete cocktail of protease inhibitor (Roche Diagnostics)). Homogenized with Polytron for 1 min and sonicated on ice for 2×2 minutes at 80% intensity (Vibracell sonicator). The preparation is centrifuged 20 min at 500 g at 4° C., the pellet is discarded, and the supernatant centrifuged 1 hour at 43,000 g at 4° C. (19,000 rpm). The pellet is resuspended in 12.5 ml Lysis buffer+12.5 ml Sucrose 20% and homogenized using a Polytron for 1-2 min. The protein concentration is determined by the Bradford method, and aliquots are stored at −80° C. until use. For binding studies 60 mg Yttrium silicate SPA beads (Amersham) are mixed with an aliquot of membrane in binding buffer (50 mM Tris, 120 mM NaCl, 5 mM, KCl, 2 mM CaCl2, 10 mM MgCl2) for 15 minutes with mixing. 50 ul of bead/membrane mixture is then added to each well of a 96 well plate, followed by 50 ul of 4 nM 3H-Vasopressin (American Radiolabeled Chemicals). For total binding measurement, 100 ul of binding buffer are added to the respective wells, for non-specific binding 100 ul of […] cold vasopressin and for compound testing 100 ul of a serial dilution of each compound in 2% DMSO. The plate is incubated 1 h at room temperature, centrifuged 1 min at 1000 g and counted on a Packard Top-Count. Non-specific binding counts are subtracted from each well, and data is normalized to the maximum specific binding set at 100%. To calculate an IC 50, the curve is fitted using a non-linear regression model (XLfit), and the Ki is calculated using the Cheng-Prussoff equation.
Take `Cc1c(C(=O)N2CCC(n3c(Cl)nc4ccccc43)CC2)c2ccccc2n1Cc1ccccc1` [Example 1, (1-Benzyl-2-methyl-1H-indol-3-yl)-[4-(2-chloro-benzoimidazol-1-yl)-piperidin-1-yl]-methanone]: the inhibition constant (Ki) (as a rule, a dissociation constant, usually derived from enzyme kinetics or from competition with a known ligand) turned out to be 45 nM.
With `Cc1c(C(=O)N2CCC(n3c(N4CCOCC4)nc4ccccc43)CC2)c2ccccc2n1Cc1ccccc1` [Example 3, (1-Benzyl-2-methyl-1H-indol-3-yl)-[4-(2-morpholin-4-yl-benzoimidazol-1-yl)-piperidin-1-yl]-methanone], the inhibition constant Ki was determined as 18 nM.
Consider `Cc1c(C(=O)N2CCC(n3c(N4CCCCC4)nc4ccccc43)CC2)c2ccccc2n1Cc1ccccc1` [Example 4, (1-Benzyl-2-methyl-1H-indol-3-yl)-[4-(2-piperidin-1-yl-benzoimidazol-1-yl)-piperidin-1-yl]-methanone], for which the affinity corresponds to a Ki of 6 nM.
The compound `O=C(c1cn(Cc2ccccc2)c2ccccc12)N1CCC(n2c(=O)[nH]c3ccccc32)CC1` [Example 8, 1-[1-(1-Benzyl-1H-indole-3-carbonyl)-piperidin-4-yl]-1,3-dihydro-benzoimidazol-2-one] had a Ki of 13 nM.
Then `Cc1c(C(=O)N2CCC(n3c(=O)n(C)c4ccccc43)CC2)c2ccccc2n1Cc1ccccc1` [Example 9, 1-{1-[(1-benzyl-2-methyl-1H-indol-3-yl)carbonyl]piperidin-4-yl}-3-methyl-1,3-dihydro-2H-benzimidazol-2-one], with 13 nM; and `Cc1[nH]c2ccccc2c1C(=O)N1CCC(n2c(=O)[nH]c3ccccc32)CC1` [Example 10, 1-[1-(2-Methyl-1H-indole-3-carbonyl)-piperidin-4-yl]-1,3-dihydro-benzoimidazol-2-one], with 39 nM.
`COc1ccc2c(C(=O)N3CCC(n4c(=O)[nH]c5ccccc54)CC3)cn(C(C)C)c2c1` [Example 11, 1-[1-(1-Isopropyl-6-methoxy-1H-indole-3-carbonyl)-piperidin-4-yl]-1,3-dihydro-benzoimidazol-2-one] came in with an inhibitory constant (Ki) of 20 nM. Compared with the last compound, the Ki is about 1.9-fold lower.
Consider `CC(C)n1cc(C(=O)N2CCC(n3c(=O)[nH]c4ccccc43)CC2)c2ccc(F)cc21` [Example 12, 1-[1-(6-Fluoro-1-isopropyl-1H-indole-3-carbonyl)-piperidin-4-yl]-1,3-dihydro-benzoimidazol-2-one], for which the Ki came to 13 nM.
Then `CC(C)n1cc(C(=O)N2CCC(n3c(=O)[nH]c4ccccc43)CC2)c2ccc(Cl)cc21` [Example 13, 1-[1-(6-Chloro-1-isopropyl-1H-indole-3-carbonyl)-piperidin-4-yl]-1,3-dihydro-benzoimidazol-2-one], with 2 nM; and `CC(C)n1cc(C(=O)N2CCC(n3c(=O)[nH]c4ccccc43)CC2)c2ccccc21` [Example 14, 1-[1-(1-Isopropyl-1H-indole-3-carbonyl)-piperidin-4-yl]-1,3-dihydro-benzoimidazol-2-one], with 32 nM; and `O=C(c1c[nH]c2cc(Cl)ccc12)N1CCC(n2c(=O)[nH]c3ccccc32)CC1` [Example 18, 1-[1-(6-Chloro-1H-indole-3-carbonyl)-piperidin-4-yl]-1,3-dihydro-benzoimidazol-2-one], with 7 nM.
With `O=C(c1c[nH]c2cc(Cl)c(F)cc12)N1CCC(n2c(=O)[nH]c3ccccc32)CC1` [Example 19, 1-[1-(6-Chloro-5-fluoro-1H-indole-3-carbonyl)-piperidin-4-yl]-1,3-dihydro-benzoimidazol-2-one] the figure was 5 nM; with `Cc1c(C(=O)N2CCC(n3c(=O)n(CCN(C)C)c4ccccc43)CC2)c2ccccc2n1Cc1ccccc1` [Example 20, 1-[1-(1-Benzyl-2-methyl-1H-indole-3-carbonyl)-piperidin-4-yl]-3-(2-dimethylamino-ethyl)-1,3-dihydro-benzoimidazol-2-one], 5 nM.
With `N#CCn1cc(C(=O)N2CCC(n3c(=O)[nH]c4ccccc43)CC2)c2ccc(Cl)cc21` [Example 21, {6-Chloro-3-[4-(2-oxo-2,3-dihydro-benzoimidazol-1-yl)-piperidine-1-carbonyl]-indol-1-yl}-acetonitrile] the figure was 6 nM.
The compound `CCC(C)C(=O)c1[nH]c2ccccc2c1C(=O)N1CCC(n2c(=O)[nH]c3ccccc32)CC1` (stereo not shown) [Example 22, 1-{1-[2-(2-Methyl-butyryl)-1H-indole-3-carbonyl]-piperidin-4-yl}-1,3-dihydro-benzoimidazol-2-one] yielded a Ki of 11 nM. Against the preceding compound, the Ki is about 1.8-fold higher.
With `Cc1c(C(=O)N2CCC(n3c(=O)[nH]c4ccccc43)CC2)c2ccccc2n1Cc1ccccc1` [Example 23, 1-[1-(1-Benzyl-2-methyl-1H-indole-3-carbonyl)-piperidin-4-yl]-1,3-dihydro-benzoimidazol-2-one] the figure was 6 nM; with `O=C(c1cn(Cc2ccccc2)c2cc(Cl)ccc12)N1CCC(n2c(=O)[nH]c3ccccc32)CC1` [Example 24, 1-[1-(1-Benzyl-6-chloro-1H-indole-3-carbonyl)-piperidin-4-yl]-1,3-dihydro-benzoimidazol-2-one], 2 nM; with `O=C(c1cn(CC2CCCCC2)c2ccccc12)N1CCC(n2c(=O)[nH]c3ccccc32)CC1` [Example 25, 1-[1-(1-Cyclohexylmethyl-1H-indole-3-carbonyl)-piperidin-4-yl]-1,3-dihydro-benzoimidazol-2-one], 20 nM.
As for `CN(C)CCn1cc(C(=O)N2CCC(n3c(=O)[nH]c4ccccc43)CC2)c2ccc(Cl)cc21` [Example 26, 1-{1-[6-Chloro-1-(2-dimethylamino-ethyl)-1H-indole-3-carbonyl]-piperidin-4-yl}-1,3-dihydro-benzoimidazol-2-one], the inhibition constant Ki is 0.7 nM.
Regarding `CN(C)CCn1c(=O)n(C2CCN(C(=O)c3c[nH]c4cc(Cl)ccc34)CC2)c2ccccc21` [Example 27, 1-[1-(6-Chloro-1H-indole-3-carbonyl)-piperidin-4-yl]-3-(2-dimethylamino-ethyl)-1,3-dihydro-benzoimidazol-2-one], the Ki stood at 5 nM.
With `O=C(c1cn(C(=O)c2cccc(F)c2)c2cc(Cl)ccc12)N1CCC(n2c(=O)[nH]c3ccccc32)CC1` [Example 28, 1-{1-[6-Chloro-1-(3-fluoro-benzoyl)-1H-indole-3-carbonyl]-piperidin-4-yl}-1,3-dihydro-benzoimidazol-2-one] the figure was 12 nM.
The compound `O=C(Cn1cc(C(=O)N2CCC(n3c(=O)[nH]c4ccccc43)CC2)c2ccc(Cl)cc21)c1cccc(F)c1` [Example 29, 1-(1-{6-Chloro-1-[2-(3-fluoro-phenyl)-2-oxo-ethyl]-1H-indole-3-carbonyl}-piperidin-4-yl)-1,3-dihydro-benzoimidazol-2-one] came in with an inhibition constant (Ki) of 22 nM.
Turning to `O=C(c1cn(C(=O)c2ccccc2F)c2cc(Cl)ccc12)N1CCC(n2c(=O)[nH]c3ccccc32)CC1` [Example 30, 1-{1-[6-Chloro-1-(2-fluoro-benzoyl)-1H-indole-3-carbonyl]-piperidin-4-yl}-1,3-dihydro-benzoimidazol-2-one], the affinity, expressed as Ki, was 35 nM.
Then `O=C(c1cn(C(=O)c2cccc(F)c2F)c2cc(Cl)ccc12)N1CCC(n2c(=O)[nH]c3ccccc32)CC1` [Example 31, 1-{1-[6-Chloro-1-(2,3-difluoro-benzoyl)-1H-indole-3-carbonyl]-piperidin-4-yl}-1,3-dihydro-benzoimidazol-2-one], with 25 nM; and `O=C(c1cn(Cc2cc(F)cc(F)c2)c2cc(Cl)ccc12)N1CCC(n2c(=O)[nH]c3ccccc32)CC1` [Example 33, 1-{1-[6-Chloro-1-(3,5-difluoro-benzyl)-1H-indole-3-carbonyl]-piperidin-4-yl}-1,3-dihydro-benzoimidazol-2-one], with 15 nM; and `O=C(c1cn(Cc2cccc(F)c2)c2cc(Cl)ccc12)N1CCC(n2c(=O)[nH]c3ccccc32)CC1` [Example 34, 1-{1-[6-Chloro-1-(3-fluoro-benzyl)-1H-indole-3-carbonyl]-piperidin-4-yl}-1,3-dihydro-benzoimidazol-2-one], with 9 nM.
In turn, `O=C(Cn1cc(C(=O)N2CCC(n3c(=O)[nH]c4ccccc43)CC2)c2ccc(Cl)cc21)c1cc(F)ccc1F` [Example 35, 1-(1-{6-Chloro-1-[2-(2,5-difluoro-phenyl)-2-oxo-ethyl]-1H-indole-3-carbonyl}-piperidin-4-yl)-1,3-dihydro-benzoimidazol-2-one] showed a Ki of 5 nM.
For `O=C(Cn1cc(C(=O)N2CCC(n3c(=O)[nH]c4ccccc43)CC2)c2ccc(Cl)cc21)c1ccc(F)cc1F` [Example 36, 1-(1-{6-Chloro-1-[2-(2,4-difluoro-phenyl)-2-oxo-ethyl]-1H-indole-3-carbonyl}-piperidin-4-yl)-1,3-dihydro-benzoimidazol-2-one], the Ki stood at 6 nM.
